The values below come from patent publication US12617783B2, “Heterocyclic GLP-1R agonists” (BIOMEA FUSION, INC., priority 2024, dated 2026).

Structures are written as SMILES.

The target of the test is T1, human GLP-1R (Homo sapiens, UniProt P43220).
T1 construct: host or cells: HEK293
T1 sequence (P43220 24-463): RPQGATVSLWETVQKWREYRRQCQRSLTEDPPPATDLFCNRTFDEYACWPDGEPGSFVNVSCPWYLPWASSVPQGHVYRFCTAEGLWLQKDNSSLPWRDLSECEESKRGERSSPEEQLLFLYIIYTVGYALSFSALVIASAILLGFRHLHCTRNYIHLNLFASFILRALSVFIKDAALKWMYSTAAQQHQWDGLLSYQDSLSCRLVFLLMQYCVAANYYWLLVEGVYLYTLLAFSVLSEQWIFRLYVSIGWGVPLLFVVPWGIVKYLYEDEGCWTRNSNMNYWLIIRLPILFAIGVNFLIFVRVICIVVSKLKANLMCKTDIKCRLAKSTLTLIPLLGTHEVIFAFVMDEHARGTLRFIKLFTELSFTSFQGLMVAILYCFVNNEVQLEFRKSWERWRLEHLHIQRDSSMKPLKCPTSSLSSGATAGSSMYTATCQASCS
Put plainly: GLP-1R cAMP assay (Example B1a, HTRF, 30 min at room temperature). It counts as cell-based. The conditions noted are these: cAMP accumulation in HEK293 expressing human GLP-1R, no BETP, 30 min room temperature (Method B1a, compounds ID 1-609), Table 1; read-out: EC50. The essentials:
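Competitive HTRF read-out of cAMP after 30 min room-temperature stimulation, BETP absent, of human GLP-1R-HEK293 cells (1,000/well) in HEPES buffer with 500 μM IBMX and 0.1% BSA. Activation normalised to GLP-1(7-37) positive control. EC50 from 4-parameter non-linear regression.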
(In general: cAMP levels reflect the balance of adenylyl cyclase and phosphodiesterase activity.)
As a reminder, the EC50 is the midpoint of the concentration-response curve. In the case of `Cc1cc(-n2nc3c(c2-n2ccn(-c4ccc5c(cnn5C)c4F)c2=O)[C@@H]2CCC[C@H](C3)N2C(=O)c2c(C)c3cc([C@H]4CCOC(C)(C)C4)ccc3n2[C@@]2(c3noc(=O)[nH]3)C[C@@H]2C)cc(C)c1F` [Compound 537, 3-[(1S,2S)-1-[5-[(4S)-2,2-dimethyltetrahydropyran-4-yl]-2-[(1S,8R)-4-(4-fluoro-3,5-dimethyl-phenyl)-3-[3-(4-fluoro-1-methyl-indazol-5-yl)-2-oxo-imidazol-1-yl]-4,5,12-triazatricyclo[6.3.1.02,6]dodeca-2,5-diene-12-carbonyl]-3-methyl-indol-1-yl]-2-methyl-cyclopropyl]-4H-1,2,4-oxadiazol-5-one], the EC50 was determined as 1.34 µM.
On to `Cc1cc(-n2nc3c(c2-n2ccn(-c4ccc5c(cnn5C)c4F)c2=O)[C@@H]2CCC[C@H](C3)N2S(=O)(=O)c2cc3cc(N4CCOC5(CC5)C4)ccc3n2[C@]2(c3noc(=O)[nH]3)C[C@@H]2C)cc(C)c1F` [Compound 538, 3-[(1R,2S)-1-[2-[[(1S,8R)-4-(4-fluoro-3,5-dimethyl-phenyl)-3-[3-(4-fluoro-1-methyl-indazol-5-yl)-2-oxo-imidazol-1-yl]-4,5,12-triazatricyclo[6.3.1.02,6]dodeca-2,5-dien-12-yl]sulfonyl]-5-(4-oxa-7-azaspiro[2.5]octan-7-yl)indol-1-yl]-2-methyl-cyclopropyl]-4H-1,2,4-oxadiazol-5-one], for which the EC50 is not below 10 µM.
The same measure for `Cc1cc(-n2nc3c(c2-n2ccn(-c4ccc5c(cnn5C)c4F)c2=O)[C@H]2CC[C@@H](C3)N2C(=O)c2cc3cc([C@H]4CCOC5(CC5)C4)ccc3n2[C@@]2(c3noc(=O)[nH]3)C[C@H]2C)cc(C)c1F` [Compound 539, 3-((1S,2R)-1-(2-((4R,7S)-3-(3-(4-fluoro-1-methyl-1H-indazol-5-yl)-2-oxo-2,3-dihydro-1H-imidazol-1-yl)-2-(4-fluoro-3,5-dimethylphenyl)-2,4,5,6,7,8-hexahydro-4,7-epiminocyclohepta [c]pyrazole-9-carbonyl)-5-((S)-4-oxaspiro[2.5]octan-7-yl)-1H-indol-1-yl)-2-methylcyclopropyl)-1,2,4-oxadiazol-5 (4H)-one]: not below 10 µM; for `Cc1cc(-n2nc3c(c2-n2ccn(-c4ccc5c(cnn5C)c4F)c2=O)[C@H]2CC[C@@H](C3)N2C(=O)c2cc3cc([C@@H]4CCOC5(CC5)C4)ccc3n2[C@@]2(c3noc(=O)[nH]3)C[C@H]2C)cc(C)c1F` [Compound 540, 3-((1S,2R)-1-(2-((4R,7S)-3-(3-(4-fluoro-1-methyl-1H-indazol-5-yl)-2-oxo-2,3-dihydro-1H-imidazol-1-yl)-2-(4-fluoro-3,5-dimethylphenyl)-2,4,5,6,7,8-hexahydro-4,7-epiminocyclohepta [c]pyrazole-9-carbonyl)-5-((R)-4-oxaspiro[2.5]octan-7-yl)-1H-indol-1-yl)-2-methylcyclopropyl)-1,2,4-oxadiazol-5 (4H)-one]: not below 10 µM.
Take `Cc1cc(-n2nc3c(c2-n2ccn(-c4ccc5c(cnn5C)c4F)c2=O)[C@@H]2CC[C@H](C3)N2C(=O)c2cc3cc([C@@H]4CCOC5(CC5)C4)ccc3n2[C@@]2(c3noc(=O)[nH]3)C[C@H]2C)cc(C)c1F` [Compound 541, 3-((1S,2R)-1-(2-((4S,7R)-3-(3-(4-fluoro-1-methyl-1H-indazol-5-yl)-2-oxo-2,3-dihydro-1H-imidazol-1-yl)-2-(4-fluoro-3,5-dimethylphenyl)-2,4,5,6,7,8-hexahydro-4,7-epiminocyclohepta [c]pyrazole-9-carbonyl)-5-((R)-4-oxaspiro[2.5]octan-7-yl)-1H-indol-1-yl)-2-methylcyclopropyl)-1,2,4-oxadiazol-5 (4H)-one]: the EC50 is not below 10 µM.
The same measure for `Cc1cc(-n2nc3c(c2-n2ccn(-c4ccc5c(cnn5C)c4F)c2=O)[C@@H]2CC[C@H](C3)N2C(=O)c2cc3cc([C@H]4CCOC5(CC5)C4)ccc3n2[C@@]2(c3noc(=O)[nH]3)C[C@H]2C)cc(C)c1F` [Compound 542, 3-((1S,2R)-1-(2-((4S,7R)-3-(3-(4-fluoro-1-methyl-1H-indazol-5-yl)-2-oxo-2,3-dihydro-1H-imidazol-1-yl)-2-(4-fluoro-3,5-dimethylphenyl)-2,4,5,6,7,8-hexahydro-4,7-epiminocyclohepta [c]pyrazole-9-carbonyl)-5-((S)-4-oxaspiro[2.5]octan-7-yl)-1H-indol-1-yl)-2-methylcyclopropyl)-1,2,4-oxadiazol-5 (4H)-one]: 1.62 µM; for `Cc1cc(-n2nc3c(c2-n2ccn(-c4ccc(C(=O)N(C)C5CC5)c(Cl)c4)c2=O)[C@@H]2CCC[C@H](C3)N2C(=O)c2cc3cc([C@H]4CCOC(C)(C)C4)ccc3n2[C@@]2(c3noc(=O)[nH]3)C[C@@H]2C)cc(C)c1F` [Compound 543, 2-chloro-N-cyclopropyl-4-[3-[(1S,8R)-12-[5-[(4S)-2,2-dimethyltetrahydropyran-4-yl]-1-[(1S,2S)-2-methyl-1-(5-oxo-4H-1,2,4-oxadiazol-3-yl)cyclopropyl]indole-2-carbonyl]-4-(4-fluoro-3,5-dimethyl-phenyl)-4,5,12-triazatricyclo[6.3.1.02,6]dodeca-2,5-dien-3-yl]-2-oxo-imidazol-1-yl]-N-methyl-benzamide]: not below 10 µM.
The same measure for `CNC(=O)Cc1ccc(-n2ccn(-c3c4c(nn3-c3cc(C)c(F)c(C)c3)C[C@H]3CCC[C@@H]4N3C(=O)c3cc4cc([C@H]5CCOC(C)(C)C5)ccc4n3[C@@]3(c4noc(=O)[nH]4)C[C@@H]3C)c2=O)cc1` [Compound 544, 2-[4-[3-[(1S,8R)-12-[5-[(4S)-2,2-dimethyltetrahydropyran-4-yl]-1-[(1S,2S)-2-methyl-1-(5-oxo-4H-1,2,4-oxadiazol-3-yl)cyclopropyl]indole-2-carbonyl]-4-(4-luoro-3,5-dimethyl-phenyl)-f4,5,12-triazatricyclo[6.3.1.02,6]dodeca-2,5-dien-3-yl]-2-oxo-imidazol-1-yl]phenyl]-N-methyl-acetamide]: not below 10 µM; for `Cc1cc(-n2nc3c(c2-n2ccn(-c4ccc5c(c4)N(C)C(=O)C54CC4)c2=O)[C@@H]2CCC[C@H](C3)N2C(=O)c2cc3cc([C@H]4CCOC(C)(C)C4)ccc3n2[C@@]2(c3noc(=O)[nH]3)C[C@@H]2C)cc(C)c1F` [Compound 545, 3-[(1S,2S)-1-[5-[(4S)-2,2-dimethyltetrahydropyran-4-yl]-2-[(1S,8R)-4-(4-fluoro-3,5-dimethyl-phenyl)-3-[3-(l′-methyl-2′-oxo-spiro[cyclopropane-1,3′-indoline]-6′-yl)-2-oxo-imidazol-1-yl]-4,5,12-triazatricyclo[6.3.1.02,6]dodeca-2,5-diene-12-carbonyl]indol-1-yl]-2-methyl-cyclopropyl]-4H-1,2,4-oxadiazol-5-one]: 0.307 µM; for `Cc1cc(-n2nc3c(c2-n2ccn(-c4ccc(CS(C)(=O)=O)cc4)c2=O)[C@@H]2CCC[C@H](C3)N2C(=O)c2cc3cc([C@H]4CCOC(C)(C)C4)ccc3n2[C@@]2(c3noc(=O)[nH]3)C[C@@H]2C)cc(C)c1F` [Compound 546, 3-[(1S,2S)-1-[5-[(4S)-2,2-dimethyltetrahydropyran-4-yl]-2-[(1S,8R)-4-(4-fluoro-3,5-dimethyl-phenyl)-3-[3-[4-(methylsulfonylmethyl)phenyl]-2-oxo-imidazol-1-yl]-4,5,12-triazatricyclo[6.3.1.02,6]dodeca-2,5-diene-12-carbonyl]indol-1-yl]-2-methyl-cyclopropyl]-4H-1,2,4-oxadiazol-5-one]: not below 10 µM.
For `Cc1cc(-n2nc3c(c2-n2ccn(-c4ccc(C(=O)N(C)C5CC5)c(F)c4F)c2=O)[C@@H]2CCC[C@H](C3)N2C(=O)c2cc3cc([C@H]4CCOC(C)(C)C4)ccc3n2[C@@]2(c3noc(=O)[nH]3)C[C@@H]2C)cc(C)c1F` [Compound 547, N-cyclopropyl-4-[3-[(1S,8R)-12-[5-[(4S)-2,2-dimethyltetrahydropyran-4-yl]-1-[(1S,2S)-2-methyl-1-(5-oxo-4H-1,2,4-oxadiazol-3-yl)cyclopropyl]indole-2-carbonyl]-4-(4-fluoro-3,5-dimethyl-phenyl)-4,5,12-triazatricyclo[6.3.1.02,6]dodeca-2,5-dien-3-yl]-2-oxo-imidazol-1-yl]-2,3-difluoro-N-methyl-benzamide] the value was not below 10 µM; for `Cc1cc(-n2nc3c(c2-n2ccn(-c4ccc5c(cnn5C)c4F)c2=O)CN(C(=O)c2cc4cc([C@H]5CCOC(C)(C)C5)ccc4n2[C@@]2(c4noc(=O)[nH]4)C[C@@H]2C)[C@@H](C)CC3)cc(C)c1F` [Compound 601, 3-[(1S,2S)-1-[5-[(4S)-2,2-dimethyltetrahydropyran-4-yl]-2-[(6S)-2-(4-fluoro-3,5-dimethyl-phenyl)-3-[3-(4-fluoro-1-methyl-indazol-5-yl)-2-oxo-imidazol-1-yl]-6-methyl-4,6,7,8-tetrahydropyrazolo[4,3-c]azepine-5-carbonyl]indol-1-yl]-2-methyl-cyclopropyl]-4H-1,2,4-oxadiazol-5-one], not below 10 µM; for `Cc1cc(-n2nc3c(c2-n2ccn(-c4ccc5ccncc5c4F)c2=O)[C@@H]2CCC[C@H](C3)N2S(=O)(=O)c2cc3cc([C@H]4CCOC(C)(C)C4)ccc3n2[C@@]2(c3noc(=O)[nH]3)C[C@@H]2C)cc(C)c1F` [Compound 602, 3-[(1S,2S)-1-[5-[(4S)-2,2-dimethyltetrahydropyran-4-yl]-2-[[(1S,8R)-4-(4-fluoro-3,5-dimethyl-phenyl)-3-[3-(8-fluoro-7-isoquinolyl)-2-oxo-imidazol-1-yl]-4,5,12-triazatricyclo[6.3.1.02,6]dodeca-2,5-dien-12-yl]sulfonyl]indol-1-yl]-2-methyl-cyclopropyl]-4H-1,2,4-oxadiazol-5-one], 1.1 µM.
